Patent US20220096592A1, “PIC1 VARIANTS WITH IMPROVED SOLUBILITY AND METHODS OF USING THE SAME” (priority 2019, published 2022)
Where a SMILES comes first, the peptide text is derived from it. [ ]: non-standard residue; d: D form. Sar = CNCC(=O)O

Tests used:
[1] = tested on: antibody-initiated complement activation (ABO incompatible hemolysis); settings: for inhibition of ABO incompatible hemolysis, in words: peptides at 1.8 mM, compared with PA-dPEG24, FIG. 1A; for complement inhibition overall, in words: both hemolytic complement inhibition assays
Method: (§1) For hemolytic complement assays, human red blood cells (RBCs) from type AB donors were purified, washed and standardized to 1×10^9 cells/ml, as previously described. Human sera from type 0 donors at a 20% final concentration was combined with […] PIC1 or sarcosine variant peptides, and the volume was brought up to 0.15 ml with GVBS^++ and […] RBCs. For factor B-depleted sera hemolytic assays, a final of 0.005% factor B depleted sera was incubated with […] PIC1 or sarcosine variant peptides with 0.1 ml antibody-sensitized sheep red blood cells (EA) in a final volume of 0.75 ml GVBS^++. The samples were incubated for one hour at 37° C. Then, 1.0 ml of GVBS^−− was added to the factor B-depleted samples to stop the reaction. The samples were spun at 3,000 rpm for 5 minutes. The supernatant was then collected and read at 412 nm. An analysis was performed to represent the values as a percent of the positive control, which consists of human 0 sera and AB red blood cells in GVBS^++ buffer.
(§2) An evaluation of the extent to which the peptide variants inhibit antibody-initiated complement activation was performed. The peptide variants were tested in the following two hemolytic assays: (i) an ABO incompatibility ex vivo assay and (ii) a classical pathway CH50-type assay in factor B-depleted sera.
In the ABO incompatibility hemolytic assay, purified erythrocytes from a ‘type AB+’ donor were incubated with sera from a ‘type 0’ subject containing anti-A and anti-B antibodies; peptides were tested at 1.8 mM.

[2] = Total Antioxidant Capacity (TAC) assay; settings: for total antioxidant capacity, in words: 0.03-0.25 mM, copper reducing equivalents, FIG. 4
Method: The TAC (Total Antioxidant Capacity) Assay (Cell Biolabs, Inc. San Diego, Calif.) was used to measure the antioxidant capacity of the sarcosine variants based on the reduction of copper (II) to copper (I). The assay was performed according to the recommended kit protocol.
Antioxidant activity was measured in copper reducing equivalents (CRE). Peptides were tested over a range of concentrations from 0.03-0.25 mM then compared to the standard.

[3] = tested on: classical complement pathway
Method: as §1, §2
A CH50-type hemolytic assay was then performed. with antibody-sensitized sheep erythrocytes, isolating the classical pathway by utilizing factor B-depleted sera; peptides were tested at 0.4 mM.

MPO heme ring = target: T1, MPO heme ring (Homo sapiens, UniProt P05164); assay: MPO heme ring oxidative degradation (absorbance 300-550 nm); format: biochemical; settings: peptides at 3 mM, with H2O2, FIG. 3A-3H
T1 construct: purchased Lee BioSolutions (Maryland Heights, Mo.)
T1 sequence (P05164 279-745 limits assumed): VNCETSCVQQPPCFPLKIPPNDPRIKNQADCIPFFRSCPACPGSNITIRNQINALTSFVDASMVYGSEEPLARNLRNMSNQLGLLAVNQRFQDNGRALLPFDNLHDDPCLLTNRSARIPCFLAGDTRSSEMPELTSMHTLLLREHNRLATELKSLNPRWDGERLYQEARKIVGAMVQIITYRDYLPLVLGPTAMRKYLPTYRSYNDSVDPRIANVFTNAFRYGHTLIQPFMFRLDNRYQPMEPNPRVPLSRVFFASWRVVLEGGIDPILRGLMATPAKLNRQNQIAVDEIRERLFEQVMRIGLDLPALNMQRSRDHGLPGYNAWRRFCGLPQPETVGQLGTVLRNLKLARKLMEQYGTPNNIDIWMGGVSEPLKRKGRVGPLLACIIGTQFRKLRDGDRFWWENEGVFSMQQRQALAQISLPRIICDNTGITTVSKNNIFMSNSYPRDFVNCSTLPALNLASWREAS
T1 sequence (P05164 165-273 limits assumed): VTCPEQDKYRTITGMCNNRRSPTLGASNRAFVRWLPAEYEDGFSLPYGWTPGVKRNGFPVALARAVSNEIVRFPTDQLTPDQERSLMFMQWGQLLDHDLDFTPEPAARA
Method: In a 96 well plate, 0.025 ml of 1.7 mg/ml MPO was combined with 0.00125 ml of 0.5% H2O2 and 3 mM PIC1 or sarcosine variant peptides in a total volume of 0.125 ml PBS and left to incubate at room temperature for 2 minutes. Using a 96 well plate reader, the wells were scanned for absorbance from 300-550 nm to generate curves reflecting the iron state in the MPO heme ring, as previously reported.
The ability of the variants to prevent degradation of the heme ring in the MPO molecule was then evaluated. […] Degradation of the heme ring can be evaluated via spectrometric measurements of absorption of wavelengths from 300 to 550 nm.

[4] = tested on: purified human neutrophils; assay: NETosis assay (immune complex activated serum and H2O2; PicoGreen free DNA, fluorescence microscopy); format: cell-based; settings: peptides at 2 mM, FIG. 5A
Method: NETosis assays with immune complexes were performed as previously described. Briefly, normal human serum was stimulated with ovalbumin-antiovalbumin immune complexes in GVBS^++ for 30 minutes at 37° C. This mixture along with 0.05% H2O2 was then added to purified human neutrophils resuspended in RPMI with or without sarcosine variants (2 mM), allowing NETosis to occur. Quantitation of free DNA released from the neutrophils was performed using PicoGreen. Slides were stained with DAPI (Southern Biotech, Birmingham, Ala.). The following antibodies were used to visualize formation of NETs: • (i) mouse anti-elastase (Invitrogen, Carlsbad, Calif.) as a primary antibody with the secondary goat anti-mouse antibody Alexa Fluor 568 (Novus Biologicals, Centennial, Colo.) and • (ii) rabbit anti-histone H3 (Abcam, Cambridge Mass.) with goat anti-rabbit antibody Alexa Fluor 488 (Novus Biologicals). Fluorescence microscopy using an Olympus BX53 microscope was performed to visualize NETs.
The peptide variants were tested for inhibition of NETosis. In this assay, purified human neutrophils were stimulated with normal human serum activated with ovalbumin-antiovalbumin immune complexes and hydrogen peroxide. Free DNA expressed from the neutrophils was then measured in a PicoGreen assay. […] Direct visualization of neutrophil extracellular trap (NET) formation by fluorescence microscopy was used to confirm the above NETosis results with the 18 variant. Human neutrophils were purified and stimulated on glass slides then stained with DAPI to visualize DNA and probed with anti-neutrophil elastase (αNE) and anti-histone H3 (αhistone), as previously described. […] Fluorescence microscopy visualization of NETs confirmed the findings seen for quantitative measurements of free DNA.

myeloperoxidase (MPO) = target: T2, myeloperoxidase (MPO) (Homo sapiens, UniProt P05164); assay: MPO peroxidase activity, TMB-based assay; format: biochemical
T2 construct: purchased Lee BioSolutions (Maryland Heights, Mo.)
T2 sequence (P05164 279-745 limits assumed): as the sequence (P05164 279-745 limits assumed) above
T2 sequence (P05164 165-273 limits assumed): as the sequence (P05164 165-273 limits assumed) above
Method: PIC1 and sarcosine variants were diluted to 25 mg/ml and then serially titrated in a 96 well plate at a volume of 0.02 ml. Myeloperoxidase (MPO) was diluted to 20 μg/ml and 0.02 ml was added to the titrated peptides. TMB (3,3′,5,5′-tetramethylbenzidine) (0.1 ml) was added to each well for 2 minutes, followed by 0.1 ml of 2.5 N H2SO4 for another 2 minutes, and then read on a 96 well plate reader (BioTek) at 450 nm.
In this assay, the variants were tested for MPO inhibition over a range of concentrations. Strong MPO inhibition was found for all variants with the exception of the no-cysteine variant (C9,10).

C1q = target: T3, C1q (Homo sapiens, UniProt P02745+P02746+P02747); assay: ELISA-type assay of peptide binding to C1q; settings: binding curves and half-maximal binding, FIG. 1C, 1D
T3 construct: purchased Complement Technology (Tyler, Tex.)
T3 sequence (P02745 23-245): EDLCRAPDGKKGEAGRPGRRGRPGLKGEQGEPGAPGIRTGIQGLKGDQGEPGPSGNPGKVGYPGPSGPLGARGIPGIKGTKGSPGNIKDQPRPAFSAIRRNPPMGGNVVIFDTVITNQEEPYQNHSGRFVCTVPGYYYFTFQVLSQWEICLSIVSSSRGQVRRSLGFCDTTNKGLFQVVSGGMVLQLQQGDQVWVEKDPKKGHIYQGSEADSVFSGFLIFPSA
T3 sequence (P02746 28-253): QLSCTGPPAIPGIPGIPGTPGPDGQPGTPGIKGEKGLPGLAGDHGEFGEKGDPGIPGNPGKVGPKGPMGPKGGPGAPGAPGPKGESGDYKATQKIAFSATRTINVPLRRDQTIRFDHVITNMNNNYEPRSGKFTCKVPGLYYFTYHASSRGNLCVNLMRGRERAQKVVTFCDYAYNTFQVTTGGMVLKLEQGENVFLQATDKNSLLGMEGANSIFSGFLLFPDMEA
T3 sequence (P02747 29-245): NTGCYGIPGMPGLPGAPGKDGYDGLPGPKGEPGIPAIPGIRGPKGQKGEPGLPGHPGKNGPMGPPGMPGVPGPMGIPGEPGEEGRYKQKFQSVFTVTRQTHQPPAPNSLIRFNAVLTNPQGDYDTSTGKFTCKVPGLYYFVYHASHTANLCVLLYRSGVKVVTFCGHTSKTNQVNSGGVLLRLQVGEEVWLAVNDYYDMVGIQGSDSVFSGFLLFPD
Method: (§3) The plates were washed with PBST (phosphate buffered saline+0.1% Tween) and then blocked with 1% gelatin/PBS for 2 hours at room temperature. After washing, the plates were incubated with PA or sarcosine variant peptides starting at 2.5 mg/ml and then serially diluted in 1% gelatin/PBS for 1 hour at room temperature. After washing, the plates were probed with rabbit anti-PA (developed with Cocalico Biologicals, Reamstown, Pa.) at 1:1000 in 1% gelatin/PBS for 1 hour, room temperature, followed by a goat anti-rabbit HRP (Sigma Aldrich, St Louis, Mo.) at 1:1,000 in 1% gelatin/PBS for 1 hour at room temperature with a washing step in between. Wells were developed using TMB substrate solution, stopped using 1 N H2SO4, and read at 450 nm in a plate reader.
Higher concentrations of DMSO interfere with the detecting reagents resulting in a partial binding curve.

MPO = target: T4, MPO (Homo sapiens, UniProt P05164); assay: plate-based assay of binding to solid phased MPO; settings: binding curves and half-maximal binding, FIG. 2C, 2D
T4 construct: purchased Lee BioSolutions (Maryland Heights, Mo.)
T4 sequence (P05164 279-745 limits assumed): as the sequence (P05164 279-745 limits assumed) above
T4 sequence (P05164 165-273 limits assumed): as the sequence (P05164 165-273 limits assumed) above
Method: as §3
A plate-based assay was performed to test the binding of the peptide variants to solid phased MPO. MPO binding was identified for all variants, except for C9,10.

[5] = summary grade of Table 4, key not given

| SMILES | inhibition of ABO incompatible hemolysis, in words [1] | total antioxidant capacity, in words [2] | inhibition of heme ring degradation, in words (MPO heme ring) | complement inhibition overall, in words [1] | inhibition of NETosis (free DNA, PicoGreen), in words [4] | further results |
| --- | --- | --- | --- | --- | --- | --- |
| CC[C@H](C)[C@H](N)C(=O)N(C)CC(=O)N[C@@H](CC(C)C)C(=O)N[C@H](C(=O)N[C@@H](CC(C)C)C(=O)N[C@@H](CCC(=O)O)C(=O)N1CCC[C@H]1C(=O)N[C@H](C(=O)N[C@@H](CS)C(=O)N[C@@H](CS)C(=O)N[C@@H](CCC(N)=O)C(=O)N[C@@H](CCC(=O)O)C(=O)N[C@@H](CCCNC(=N)N)C(=O)N[C@@H](C)C(=O)N[C@@H](C)C(=O)O)[C@@H](C)CC)[C@@H](C)CC [A2] (H-I[Sar]LILEPICCQERAA-OH) | inhibited ABO incompatible hemolysis to a greater extent than did the PA-dPEG24 | – | – | – | – | – |
| CC[C@H](C)[C@H](N)C(=O)N[C@@H](C)C(=O)N[C@@H](CC(C)C)C(=O)N[C@H](C(=O)N[C@@H](CC(C)C)C(=O)N[C@@H](CCC(=O)O)C(=O)N1CCC[C@H]1C(=O)N[C@H](C(=O)N(C)CC(=O)N[C@@H](CCC(N)=O)C(=O)N[C@@H](CCC(=O)O)C(=O)N[C@@H](CCCNC(=N)N)C(=O)N[C@@H](C)C(=O)N[C@@H](C)C(=O)O)[C@@H](C)CC)[C@@H](C)CC [C9, 10] (H-IALILEPI[Sar]QERAA-OH) | minimal inhibition of ABO hemolysis | no antioxidant capacity | showed inhibition of heme ring degradation | most, but not all, complement inhibition was lost | only slight inhibition relative to the negative control | Total Antioxidant Cap [2, 5]: 0; inhibition of classical pathway hemolysis, in words ([3]; peptides at 0.4 mM, compared with PA-dPEG24, FIG. 1B): minimal activity; Classical C’ inhibition [3, 5]: 0; ABO C’ inhibition [1, 5]: 0; MPO inhibition, in words (myeloperoxidase (MPO); dose-response and half-maximal inhibition, FIG. 2A, 2B): does not possess; MPO inhibition (myeloperoxidase (MPO); [5]): 0 |
| CC[C@H](C)[C@H](N)C(=O)N[C@@H](C)C(=O)N[C@@H](CC(C)C)C(=O)N[C@H](C(=O)N[C@@H](CC(C)C)C(=O)N[C@@H](CCC(=O)O)C(=O)N1CCC[C@H]1C(=O)N[C@H](C(=O)N(C)CC(=O)N[C@@H](CS)C(=O)N[C@@H](CCC(N)=O)C(=O)N[C@@H](CCC(=O)O)C(=O)N[C@@H](CCCNC(=N)N)C(=O)N[C@@H](C)C(=O)N[C@@H](C)C(=O)O)[C@@H](C)CC)[C@@H](C)CC [C9] (H-IALILEPI[Sar]CQERAA-OH) | inhibited ABO incompatible hemolysis to a greater extent than did the PA-dPEG24 | approximately half of the antioxidant capacity as PA-dPEG24 | near perfect preservation of the heme ring absorption spectrum | performed almost identically to the parent compound, PA-dPEG24 | – | – |
| CC[C@H](C)[C@H](N)C(=O)N[C@@H](C)C(=O)N[C@@H](CC(C)C)C(=O)N(C)CC(=O)N[C@@H](CC(C)C)C(=O)N[C@@H](CCC(=O)O)C(=O)N1CCC[C@H]1C(=O)N[C@H](C(=O)N[C@@H](CS)C(=O)N[C@@H](CS)C(=O)N[C@@H](CCC(N)=O)C(=O)N[C@@H](CCC(=O)O)C(=O)N[C@@H](CCCNC(=N)N)C(=O)N[C@@H](C)C(=O)N[C@@H](C)C(=O)O)[C@@H](C)CC [I4] (H-IAL[Sar]LEPICCQERAA-OH) | inhibited ABO incompatible hemolysis to a greater extent than did the PA-dPEG24 | antioxidant capacity approaching that of PA-dPEG24 | – | – | reduced ability to inhibit NETosis compared with PA-dPEG24 | – |
| CC[C@H](C)[C@H](N)C(=O)N[C@@H](C)C(=O)N(C)CC(=O)N[C@H](C(=O)N[C@@H](CC(C)C)C(=O)N[C@@H](CCC(=O)O)C(=O)N1CCC[C@H]1C(=O)N[C@H](C(=O)N[C@@H](CS)C(=O)N[C@@H](CS)C(=O)N[C@@H](CCC(N)=O)C(=O)N[C@@H](CCC(=O)O)C(=O)N[C@@H](CCCNC(=N)N)C(=O)N[C@@H](C)C(=O)N[C@@H](C)C(=O)O)[C@@H](C)CC)[C@@H](C)CC [L3] (H-IA[Sar]ILEPICCQERAA-OH) | – | antioxidant capacity approaching that of PA-dPEG24 | – | – | – | – |
| CC[C@H](C)[C@H](N)C(=O)N[C@@H](C)C(=O)N[C@@H](CC(C)C)C(=O)N[C@H](C(=O)N[C@@H](CC(C)C)C(=O)N[C@@H](CCC(=O)O)C(=O)N1CCC[C@H]1C(=O)N[C@H](C(=O)N[C@@H](CS)C(=O)N[C@@H](CS)C(=O)N[C@@H](CCC(N)=O)C(=O)N[C@@H](CCC(=O)O)C(=O)N[C@@H](CCCNC(=N)N)C(=O)N[C@@H](C)C(=O)N[C@@H](C)C(=O)O)[C@@H](C)CC)[C@@H](C)CC [PA] | – | – | – | – | – | binding to C1q, in words (C1q): superior binding to C1q as compared with the other peptides; binding to MPO, in words (MPO): near complete overlay of the 18 and PA curves |
